Key:
[1] = system: 10 human cell lines (nine cancer and one non-cancer cell line); experiment: WST-1 cytotoxicity test, statements over all cell lines; assay type: cell-based; conditions: 48 h
Procedure: (§1) In this study, the cytotoxic effects of nine new compounds (2, 3, 4, 5, 6, 7, 8, 9, 10) were tested on 10 human cell lines (nine cancer and one non-cancer cell line). The cell lines were treated with each compound at concentrations of 10 µM and 100 µM for 48 h. The proliferation capacity of the treated cells was determined by WST-1 test and compared against the proliferation rate of the untreated control cells (100%).
(§2) The cell lines Jurkat, MOLT-4, A2780, A549, HT-29, PANC-1, HeLa, MCF-7, SAOS-2, and MRC-5 (all purchased from Sigma Aldrich, Czech Republic) were included in this study. All cell lines were maintained according to the provider’s guidelines, and plated and treated in 96-well plates (500 to 30 × 10^3 cells per well). The tested compounds 2, 3, 4, 5, 6, 7, 8, 9, and 10 were dissolved in 0.1% DMSO and kept in 10 mM stock solutions. Before use, the stock solution was diluted in culture media at ratios of 1:100 and 1:1000. The studied cell lines were treated with the compounds 2, 3, 4, 5, 6, 7, 8, 9, and 10 at concentrations of 10 and 100 µM for 48 h. Control cells were tested in culture media with and without DMSO (0.1%). The cells were also treated with 1 µM doxorubicin as a cytotoxicity control.
(§3) The WST-1 (2-(4-iodophenyl)-3-(4-nitrophenyl)-5-(2,4-disulfophenyl)-2H-tetrazolium, monosodium salt) test (Roche, Mannheim, Germany) was used according to the manufacturer’s protocol to determine cell viability in all 10 cell lines 48 h after treatment with the tested compounds. The cells were analyzed in a Tecan Infinite M200 spectrometer (Tecan Group, Männedorf, Switzerland) at 440 nm.

[2] = WST-1 cytotoxicity test, MRC-5; assay type: cell-based; conditions: human, MRC-5 cells, read-out: relative viability (%) compared to untreated control; for viability at 48 h, 10 µM: MRC-5, 10 µM
Procedure: as §1, §2, §3

[3] = WST-1 cytotoxicity test, SAOS-2; assay type: cell-based; conditions: human, SAOS-2 cells, read-out: relative viability (%) compared to untreated control; for viability at 48 h, 10 µM: SAOS-2, 10 µM
Procedure: as §1, §2, §3

[4] = WST-1 cytotoxicity test, PANC-1; assay type: cell-based; conditions: human, PANC-1 cells, read-out: relative viability (%) compared to untreated control; for viability at 48 h, 10 µM: PANC-1, 10 µM
Procedure: as §1, §2, §3

[5] = WST-1 cytotoxicity test, Jurkat; assay type: cell-based; conditions: human, Jurkat cells, read-out: relative viability (%) compared to untreated control
Procedure: as §1, §2, §3

[6] = WST-1 cytotoxicity test, A2780; assay type: cell-based; conditions: human, A2780 cells, read-out: relative viability (%) compared to untreated control; for viability at 48 h, 10 µM: A2780, 10 µM
Procedure: as §1, §2, §3

[7] = WST-1 cytotoxicity test, HT-29; assay type: cell-based; conditions: human, HT-29 cells, read-out: relative viability (%) compared to untreated control; for viability at 48 h, 10 µM: HT-29, 10 µM
Procedure: as §1, §2, §3

A549 cells = experiment: MTT assay, IC50 and MTC; conditions: for MTC (maximum tolerated concentration): 24 h of treatment; for IC50: Homo sapiens, A549, 24 h, read-out: IC50 ± SEM
Procedure: In further experiments, MTT (3-(4,5-di-methylthiazol-2-yl)-2,5-diphenyltetrazolium bromide) assay was employed to evaluate the toxicological indexes of the newly synthesized compounds, including IC50 (half-maximal inhibitory concentration) and MTC (maximum tolerated concentration).
IC50 and MTC were determined through MTT assays. The MTT assay was performed according to [35]. In brief, the A549 cell line was plated in 96-well plates (100 µL, 9 × 10^3 cells per well) and incubated overnight. The tested compounds were prepared in phosphate buffer saline (PBS; Sigma–Aldrich) and serially diluted in DMEM (Dulbecco’s Modified Eagle Medium). An untreated control was included as a viability standard in each plate. After 24 h of treatment, the viability of A549 cells was measured at 570 nm. All experiments were performed in triplicate. The GraphPad Prism statistics software v5.04 (GraphPad Software Inc., San Diego, CA, USA) was used to calculate the IC50 values for parameter nonlinear regression. Values are expressed as mean ± SEM.

[8] = WST-1 cytotoxicity test, MCF-7; assay type: cell-based; conditions: human, MCF-7 cells, read-out: relative viability (%) compared to untreated control; for viability at 48 h, 10 µM: MCF-7, 10 µM
Procedure: as §1, §2, §3

[9] = WST-1 cytotoxicity test, MOLT-4; assay type: cell-based; conditions: human, MOLT-4 cells, read-out: relative viability (%) compared to untreated control; for viability at 48 h, 10 µM: MOLT-4, 10 µM
Procedure: as §1, §2, §3

[10] = WST-1 cytotoxicity test, HeLa; assay type: cell-based; conditions: human, HeLa cells, read-out: relative viability (%) compared to untreated control
Procedure: as §1, §2, §3

[11] = WST-1 cytotoxicity test, A549; assay type: cell-based; conditions: human, A549 cells, read-out: relative viability (%) compared to untreated control; for viability at 48 h, 10 µM: A549, 10 µM
Procedure: as §1, §2, §3

[12] = WST-1 cytotoxicity test, statements over all cell lines; assay type: cell-based, human; conditions: human, 10 µM, across all the 10 cell lines tested, read-out: percentage of viable cells
Procedure: as §1, §2, §3

[13] = 48 h, WST-1, mean ± SD of three experiments
[14] = 100 µM, 48 h, WST-1, mean ± SD of three experiments
[15] = doxorubicin 1 µM cytotoxicity control, WST-1, mean ± SD

| Compound | viability at 48 h, 10 µM [2, 13] | viability at 48 h, 10 µM [3, 13] | viability at 48 h, 10 µM [4, 13] | viability at 48 h, 10 µM [5, 13] | viability at 48 h, 10 µM [6, 13] | viability at 48 h, 10 µM [7, 13] | MTC (maximum tolerated concentration) (A549 cells; A549 cells, MTT) | IC50 (A549 cells) | viability at 48 h, 10 µM [8, 13] | melting point | viability at 48 h, 10 µM [9, 13] | viability at 48 h, 10 µM [10, 13] | viability at 48 h, 10 µM [11, 13] | also measured |
| --- | --- | --- | --- | --- | --- | --- | --- | --- | --- | --- | --- | --- | --- | --- |
| COc1ccc2nc3c(c(NCCN4CCN(CCO)CC4)c2c1)CCCC3.Cl.Cl.Cl [Compound 3, 7-Methoxy-N-{2-[4-(2-hydroxyethyl)piperazin-1-yl]ethyl}-1,2,3,4-tetrahydroacridin-9-amine trihydrochloride] | 84 ± 2% | 80 ± 4% | 78 ± 6% | 95 ± 9% | 84 ± 7% | 85 ± 11% | 0.01 mM | 140 ± 10 µM | 84 ± 9% | 157 to 158 °C | 81 ± 13% | 104 ± 13% | 94 ± 15% | decrease of cell viability ([1]; 100 µM, all the tested cell lines): ≥ 70%; cytotoxic effect (in words) ([1]; 100 µM, studied cell lines): highly cytotoxic; viability at 48 h, 100 µM ([2]; MRC-5, 100 µM, 48 h, WST-1, mean ± SD of three experiments): 9 ± 6%; viability at 48 h, 100 µM ([3]; SAOS-2, 100 µM, 48 h, WST-1, mean ± SD of three experiments): 10 ± 2%; viability at 48 h, 100 µM ([4]; PANC-1, 100 µM, 48 h, WST-1, mean ± SD of three experiments): 30 ± 4%; viability at 48 h, 100 µM [5, 14]: 12 ± 5%; viability at 48 h, 100 µM ([6]; A2780, 100 µM, 48 h, WST-1, mean ± SD of three experiments): 20 ± 5%; viability at 48 h, 100 µM ([7]; HT-29, 100 µM, 48 h, WST-1, mean ± SD of three experiments): 14 ± 5%; IC50 fold higher than that for compound 2 (A549 cells; A549 cells, MTT): 3.5 fold; viability at 48 h, 100 µM ([8]; MCF-7, 100 µM, 48 h, WST-1, mean ± SD of three experiments): 10 ± 2%; viability at 48 h, 100 µM ([9]; MOLT-4, 100 µM, 48 h, WST-1, mean ± SD of three experiments): 2%; viability at 48 h, 100 µM [10, 14]: 11 ± 3%; viability at 48 h, 100 µM ([11]; A549, 100 µM, 48 h, WST-1, mean ± SD of three experiments): 13 ± 2% |
| COc1cccc2c1C(=O)c1c(O)c3c(c(O)c1C2=O)C[C@@](O)(C(=O)CO)C[C@@H]3O[C@H]1C[C@H](N)[C@H](O)[C@H](C)O1 [DOX, doxorubicin, reference compound] | – | – | – | – | – | – | – | – | – | – | – | – | – | viability at 48 h, 1 µM ([2]; MRC-5, doxorubicin 1 µM cytotoxicity control, WST-1, mean ± SD): 22 ± 2%; viability at 48 h, 1 µM ([3]; SAOS-2, doxorubicin 1 µM cytotoxicity control, WST-1, mean ± SD): 22 ± 4%; viability at 48 h, 1 µM ([4]; PANC-1, doxorubicin 1 µM cytotoxicity control, WST-1, mean ± SD): 78 ± 7%; viability at 48 h, 1 µM [5, 15]: 2%; viability at 48 h, 1 µM ([6]; A2780, doxorubicin 1 µM cytotoxicity control, WST-1, mean ± SD): 8 ± 4%; viability at 48 h, 1 µM ([7]; HT-29, doxorubicin 1 µM cytotoxicity control, WST-1, mean ± SD): 55 ± 18%; viability at 48 h, 1 µM ([8]; MCF-7, doxorubicin 1 µM cytotoxicity control, WST-1, mean ± SD): 32 ± 3%; viability at 48 h, 1 µM ([9]; MOLT-4, doxorubicin 1 µM cytotoxicity control, WST-1, mean ± SD): 1%; viability at 48 h, 1 µM [10, 15]: 76 ± 12%; viability at 48 h, 1 µM ([11]; A549, doxorubicin 1 µM cytotoxicity control, WST-1, mean ± SD): 42 ± 11% |
| COc1ccc2nc3c(c(NCCN4CCNCC4)c2c1)CCCC3.Cl.Cl.Cl [Compound 2, 7-Methoxy-N-(2-(piperazin-1-yl)ethyl)-1,2,3,4-tetrahydroacridin-9-amine trihydrochloride] | 23 ± 2% | 28 ± 2% | 39 ± 2% | 31 ± 14% | 44 ± 9% | 28 ± 6% | 0.002 mM | 40 ± 2 µM | 15 ± 1% | 172 to 173 °C | 0% | 25 ± 1% | 27 ± 3% | viability at 48 h, 10 µM [12]: < 44%; cytotoxic effect (in words) ([1]; 10 µM, tested cell lines): highly cytotoxic |
